Our source for the IC50 values is PubChem BioAssay AID792 (PCMD, 2007).

The target of the assay is S. cerevisiae eIF2B mutant, luciferase reporter luminescence. Briefly: eIF2B reporter inhibitors in yeast strains, dose response, S. cerevisiae, mutant, wild-type, luminescence, growth (AID 792).
The mark [1] stands for this setting: measured here: mutant yeast growth.
The mark [2] stands for this setting: S. cerevisiae wild-type, luminescence.

SMILES strings stand for the structures. Results filed as inconclusive are left out. Active and inactive are the calls of the source. The rule behind the calls is not given here. A value given as a limit tells only on which side of the number the result lay.

For the compound `O=C(O)c1ccc(CSc2n[nH]c(-c3ccco3)n2)cc1`, the IC50 was > 100 µM (inactive). Under setting [1], the IC50 is > 100 µM.

Turning to `Cc1ccc(NC(=O)CN(C)C(=O)CSc2nc3ccccc3o2)cc1`, the IC50 is > 100 µM (inactive). Under setting [1], the IC50 is > 100 µM.

For the compound `Cc1ncc(CO)c2cc(C(N)=O)c(=Nc3ccccc3)oc12`, the IC50 is > 100 µM (inactive). For the same compound, the IC50 under setting [1] was > 100 µM.

For the compound `Cc1ccc(C)c(N2CCN(S(=O)(=O)c3ccc4[nH]c(=O)c(=O)[nH]c4c3)CC2)c1`, the IC50 was > 100 µM (inactive). Further, under setting [1], the IC50 was > 100 µM.

Regarding `O=c1c(Cl)c(N2CCCCC2)cnn1-c1nc2ccccc2[nH]1`, the IC50 result is “inactive”. Under setting [2], this compound displayed an IC50 of 3.69 µM. Moreover, the IC50 under setting [1] is > 100 µM.

With `O=S(=O)(N1CCCCC1)N1CCCN(S(=O)(=O)N2CCCCC2)CC1`, the IC50 is > 100 µM (inactive). Also, the IC50 under setting [1] was > 100 µM.

For `COc1ccc(Nc2oc(COc3cccc(C)c3)nc2C#N)cc1`, the IC50 is > 100 µM (inactive). Under setting [1], the IC50 was > 100 µM.

On to `C=CCN(C(=O)Cn1c(C(=O)OC)cc2oc(C)cc21)c1ccccc1`, for which the IC50 was > 100 µM (inactive). Further, the IC50 under setting [1] was > 100 µM.

For `CC(=O)c1cnc2c(-c3ccc(Cl)cc3)c(C)nn2c1C`, the IC50 was > 100 µM (inactive). Moreover, the concentration for half-maximal inhibition (IC50) under setting [1] is > 100 µM.

On to `Cc1cc2n(n1)SC(Nc1ccccc1)N2` (configuration not stated), for which the IC50 was > 100 µM (inactive). The IC50 under setting [1] was > 100 µM.

On to `CCn1c(SCC(=O)Nc2oc(-c3ccccc3)c(-c3ccccc3)c2C#N)nnc1-c1ccco1`, for which the IC50 is > 100 µM (inactive). The IC50 under setting [1] was > 100 µM.

As for `COC(=O)c1cn(CCOc2ccccc2)c2ccccc12`, the IC50 is > 100 µM (inactive). Besides, the IC50 under setting [1] is > 100 µM.

Regarding `COc1ccc(C2(C)NC(=O)N(CC(=O)Nc3ccc4c(c3)OCO4)C2=O)cc1OC` (configuration not stated), the IC50 was > 100 µM (inactive). Besides, the IC50 under setting [1] was > 100 µM.

Consider `CN1CCN(C(=O)CSc2nc(-c3ccncc3)ccc2C#N)CC1`, for which the IC50 is > 100 µM (inactive). The IC50 under setting [1] was > 100 µM.

Consider `CC(C)NC(=O)CCNS(=O)(=O)c1ccc(Br)cc1`, for which the IC50 was > 100 µM (inactive). For the same compound, the half-inhibitory concentration (IC50) under setting [2] was > 100 µM. For the same compound, under setting [1], the IC50 worked out at 24.2 µM.

Consider `Cc1ccc(OCCCC(=O)Nc2ccc(S(=O)(=O)Nc3cc(C)on3)cc2)cc1`, for which the IC50 was > 100 µM (inactive). For the same compound, under setting [1], the half-maximal inhibitory concentration (IC50) was > 100 µM.

Consider `O=C(CSc1nc(-c2ccco2)cc(C(F)(F)F)n1)Nc1ccccc1C(F)(F)F`, for which the IC50 was > 100 µM (inactive). Moreover, the IC50 under setting [1] was > 100 µM.

Consider `CNC(=O)CCn1nc(-c2ccccc2)c2ccccc2c1=O`, for which the IC50 was > 100 µM (inactive). Further, the IC50 under setting [1] is > 100 µM.

Regarding `CCOC(=O)C1=C(C)NC(SCc2cc(=O)[nH][nH]2)=C(C#N)C1c1cccs1` (configuration not stated), the IC50 was > 100 µM (inactive). Further, under setting [1], the concentration for half-maximal inhibition (IC50) is > 100 µM.

In the case of `Cc1ccc(N2CC(C(=O)Nc3ccccc3C(=O)NC3CCCCC3)CC2=O)cc1C` (configuration not stated), the IC50 is > 100 µM (inactive). Further, the IC50 under setting [1] was > 100 µM.

In the case of `CCCS(=O)(=O)N1CCC(C(=O)NCCc2ccc(C)cc2)CC1`, the IC50 is > 100 µM (inactive). Under setting [1], the half-maximal inhibitory concentration (IC50) was > 100 µM.

Consider `COc1ccc(C2=CC(c3sccc3C)n3nnnc3N2)cc1` (configuration not stated), for which the IC50 was > 100 µM (inactive). The IC50 under setting [1] was > 100 µM.

In the case of `Cc1nn(-c2ccccc2)c2c1C(c1c(C)[nH]c(C#N)c1C)C(C#N)=C(N)O2` (configuration not stated), the IC50 was > 100 µM (inactive). The IC50 under setting [1] is > 100 µM.

For the compound `CC(C)c1[nH]c(=O)c(C#N)c2c1COC(C)(C)C2`, the IC50 is > 100 µM (inactive). For the same compound, the IC50 under setting [1] was > 100 µM.

As to `COc1cc(OC)nc(NC(=O)CCl)n1`, the IC50 was > 100 µM (inactive). Further, the half-inhibitory concentration (IC50) under setting [1] is > 100 µM.

In the case of `O=C1CNC(=O)N1Cc1ccc(Br)cc1`, the IC50 was > 100 µM (inactive). The half-inhibitory concentration (IC50) under setting [1] is > 100 µM.

In the case of `C=CCOC(=O)C1=C(C)Nc2nc3ccccc3n2C1c1ccncc1` (configuration not stated), the IC50 is > 100 µM (inactive). Further, the IC50 under setting [1] is > 100 µM.

In the case of `O=C(CCSc1nnc(-c2ccco2)o1)Nc1ccc(Cl)cc1`, the IC50 is > 100 µM (inactive). The IC50 under setting [1] was > 100 µM.

Consider `CN1C(=O)c2ccccc2Sc2ccc(C(=O)N3CCC4(CC3)OCCO4)cc21`, for which the IC50 was > 100 µM (inactive). For the same compound, under setting [1], the IC50 is > 100 µM.

Consider `Cc1cc(C)n(-c2cc(=O)n(C)c(=O)n2C)n1`, for which the IC50 was > 100 µM (inactive). Moreover, the half-inhibitory concentration (IC50) under setting [1] was > 100 µM.

As for `C=CCn1c(SCc2c(Cl)cccc2Cl)nnc1-c1cccnc1`, the IC50 was > 100 µM (inactive). The IC50 under setting [1] was > 100 µM.

As to `Cn1c(/C(C#N)=C(\O)CN2CCN(Cc3ccccc3)CC2)nc2ccccc21`, the IC50 is > 100 µM (inactive). For the same compound, the IC50 under setting [1] is > 100 µM.

Turning to `Cc1c(O)c(CN2CCCC2)cc2c1oc(=O)c1ccccc12`, the IC50 is > 100 µM (inactive). Moreover, under setting [2], the IC50 is > 100 µM. Besides, the IC50 under setting [1] is > 100 µM.

`COCc1cc(=O)[nH]c(Nc2nc3ccc(C)cc3o2)n1`: the IC50 was > 100 µM (inactive). In addition, the IC50 under setting [1] is > 100 µM.

For `CCOC(=O)Cn1c(=O)c(-c2ccccc2NCc2ccccc2)nc2ccccc21`, the IC50 is > 100 µM (inactive). Besides, under setting [1], the IC50 was > 100 µM.

As to `Cc1cccc(-c2nnc(SCC#N)n2Cc2ccccc2)c1`, the IC50 is > 100 µM (inactive). In addition, the IC50 under setting [1] was > 100 µM.

On to `O=c1c(Cl)c(NCCCO)cnn1-c1nc2ccccc2[nH]1`, for which the IC50 entry is “inactive”. Under setting [2], the IC50 is 15.9 µM. Under setting [1], this compound gave an IC50 of 29.2 µM.

In the case of `COc1ccc(C2NC(=O)NC(C)=C2C(C)=O)cc1` (configuration not stated), the IC50 was > 100 µM (inactive). Further, the 50% inhibitory concentration (IC50) under setting [1] was > 100 µM.

On to `COc1ccccc1NC(=O)CSc1nc(O)cc(=O)n1C`, for which the IC50 is > 100 µM (inactive). In addition, under setting [1], the IC50 is > 100 µM.

With `COC(=O)c1cccc(NC(=O)c2ccc(S(=O)(=O)N3CCN(C)CC3)cc2)c1`, the IC50 is > 100 µM (inactive). Also, the IC50 under setting [1] was > 100 µM.

With `CCCCN(C(=O)Cn1nnc2ccccc21)C(C(=O)NCCOC)c1ccccc1` (configuration not stated), the IC50 is > 100 µM (inactive). The IC50 under setting [1] was > 100 µM.

Take `CCN1CCN(c2cc(-c3ccccc3)nc3cc(-c4cccc(F)c4)nn23)CC1`: the IC50 entry was “inactive”. Moreover, the IC50 under setting [2] was 6.87 µM. Under setting [1], this compound registered an IC50 of 8.98 µM.

Take `CCCc1nc(SCC(=O)Nc2cc(C)on2)c2ccccc2n1`: the IC50 is > 100 µM (inactive). Moreover, the IC50 under setting [1] was > 100 µM.

Regarding `CCOC(=O)c1oc2cc(O)ccc2c(=O)c1-c1csc(C)n1`, the IC50 is > 100 µM (inactive). The IC50 under setting [1] was > 100 µM.

With `Nc1nc(NCc2ccccc2)nc(-c2ccccc2)n1`, the IC50 is > 100 µM (inactive). Under setting [1], the IC50 was > 100 µM.

With `C=CCn1c(COc2ccccc2F)nnc1SCC(=O)Nc1cc2oc3ccccc3c2cc1OC`, the IC50 is > 100 µM (inactive). Further, the IC50 under setting [1] was > 100 µM.

Regarding `COC(=O)Cc1c(C)c2cc(Cl)c(OC(=O)c3ccco3)cc2oc1=O`, the IC50 is > 100 µM (inactive). Also, the IC50 under setting [1] is > 100 µM.

For the compound `CCOC(=O)C1CCN(c2ncnc3c2oc2ccccc23)CC1`, the IC50 was > 100 µM (inactive). In addition, under setting [1], the IC50 was > 100 µM.

In the case of `Cc1cc2ncc(C(=O)Nc3ccccc3)c(C)n2n1`, the IC50 is > 100 µM (inactive). Besides, under setting [1], the IC50 is > 100 µM.

For `Cc1nn(C)c(C)c1CN(C)C(=O)c1cc2nc(-c3ccco3)cc(C(F)(F)F)n2n1`, the IC50 was > 100 µM (inactive). The IC50 under setting [1] was > 100 µM.

As for `Cc1cc(NC(=O)CN2CCCC(C)C2)n(-c2nc3ccccc3s2)n1` (configuration not stated), the IC50 is > 100 µM (inactive). The IC50 under setting [1] is > 100 µM.

In the case of `CCCCN1C(=O)CN(CCc2ccccc2)C(=O)C1c1ccc(OC)cc1` (configuration not stated), the IC50 was > 100 µM (inactive). Also, under setting [1], the IC50 was > 100 µM.

On to `O=C(c1ccc2c(c1)OCO2)N(c1ccc(F)cc1)C1C=CS(=O)(=O)C1` (configuration not stated), for which the IC50 is > 100 µM (inactive). In addition, the half-maximal inhibitory concentration (IC50) under setting [1] was > 100 µM.

Regarding `Cc1ccc(C)c(N2CCN(C(=O)c3ccc(CS(=O)(=O)c4ccccc4C)o3)CC2)c1`, the IC50 was > 100 µM (inactive). The IC50 under setting [1] was > 100 µM.

As to `Cc1cccc(-n2nnc3cnn(C)c3c2=O)c1`, the IC50 was > 100 µM (inactive). In addition, the IC50 under setting [1] was > 100 µM.

In the case of `CCOc1ccccc1NC(=O)c1ccccc1-c1nc(-c2ccccc2)no1`, the IC50 is > 100 µM (inactive). For the same compound, under setting [1], the IC50 was > 100 µM.

As to `O=C(Nc1ccc2nc(-c3ccc4nc[nH]c4c3)[nH]c2c1)c1cccs1`, the IC50 was > 100 µM (inactive). Besides, the IC50 under setting [1] is > 100 µM.

As for `CC(=O)NC(CCS(C)(=O)=O)C(=O)Nc1ccccc1Cl` (configuration not stated), the IC50 was > 100 µM (inactive). Further, the IC50 under setting [1] was > 100 µM.

Consider `O=C(Nc1nnc(COc2ccc(Cl)cc2)s1)c1cccs1`, for which the IC50 was > 100 µM (inactive). For the same compound, the IC50 under setting [1] was > 100 µM.

Turning to `COc1ccc(OC)c(N/C(C)=C/C(=O)c2ccc(C)o2)c1`, the IC50 was > 100 µM (inactive). For the same compound, under setting [2], the half-maximal inhibitory concentration (IC50) is > 100 µM. For the same compound, under setting [1], the IC50 was > 100 µM.

On to `O=c1/c(=C/c2ccc(O)cc2)sc2n1CCCN=2`, for which the IC50 entry was “inactive”. Under setting [2], the half-maximal inhibitory concentration (IC50) is 2.11 µM. Under setting [1], the IC50 was > 100 µM.

As for `COc1cc(NS(=O)(=O)c2ccc3c(c2)n(C)c(=O)n3C)cc(OC)c1`, the IC50 was > 100 µM (inactive). Moreover, the IC50 under setting [1] is > 100 µM.

On to `Cc1csc(NC(=O)NC2(C(F)(F)F)Oc3ccccc3O2)n1`, for which the IC50 is > 100 µM (inactive). Further, under setting [1], the IC50 is > 100 µM.

For `COc1ccccc1NC(=O)Cc1csc(N)n1`, the IC50 is > 100 µM (inactive). Under setting [1], the IC50 was > 100 µM.

For the compound `O=C(c1ccco1)N1CCN(C(=O)c2ccccc2Oc2ccccc2)CC1`, the IC50 was > 100 µM (inactive). The 50% inhibitory concentration (IC50) under setting [1] is > 100 µM.

As usually defined, the IC50 is the concentration that inhibits the measured activity by half.
